Patent publication US20080081829A1, “Medical Device Including an Anesthetic and Method of Preparation Thereof” (MED Institute, Inc, priority 2006, published 2008)
“Also recorded” adds a separate entry of the source. Where a name gives a salt, the structure may show the parent alone. Read-outs that look alike come from different tables or passages of the source.

Columns and labels:
[1] = Table 1, anesthetics having protonated and unprotonated forms; cited from earlier work
[2] = Elution of bupivacaine from spray-coated ureteral stents in aqueous buffers of different pH; format: physicochemical
Excerpt: (§1) An approximately 0.6% solution of bupivacaine having a tertiary amine in the non-ionic form (formula (2a) above) in dichloromethane was loaded into a syringe mounted onto a syringe pump and connected to a tube that carried the solution to an ultrasonic nozzle (Model 06-05108—Sono-Tek Co., Poughkeepsie, N.Y. 12547.) A nozzle was 6 mm diameter, 11 mm long and used with a nominal frequency of 120 kHz. Air was purged from the solution line and the spray nozzle primed with the solution. The coating chamber was purged with nitrogen to attain an oxygen concentration below 100 ppm. The solution was sprayed onto ureteral stent substrates 20 to 280 mm long (polyurethane double pigtail soflex ureteral stent, Cook Incorporated (Bloomington, Ind.)). A smooth, uniform coating was observed. Control stents were coated with the same concentration of Bupivacaine.HCl using the above coating method.
The stents were placed in solutions at different pH values to test the elution of bupivacaine over time. […] Acetic acid/sodium acetate was used for the pH 4.5 buffer, 0.1 M phosphate-buffered solution (PBS) for the pH 7.0 buffer, and sodium carbonate for the pH 9.5 buffer.

[3] = Exposure of coated ureteral stent to water / aqueous environment (photomicrographs of coating); format: physicochemical
Excerpt: as §1
(§2) FIGS. 4-7 depict photomicrographs of the coatings showing the uniformity and tenacity of the non-ionic coatings, in contrast to the water-soluble ionic coatings. […] FIG. 5 depicts a relatively rough, crystalline coating 91 of Bupivacaine.HCl on a ureteral stent 90, on the left, and the same stent after a one-minute ex vivo exposure to a pig ureter.
(§3) FIG. 7 then depicts the same type of stent 110 with a coating 114 of the non-ionic form of bupivacaine after 24 hours in an ex vivo test with a pig ureter.

[4] = Ex vivo exposure of coated ureteral stent to a pig ureter
Excerpt: as §1, §2, §3

[5] = cited from earlier work

| Compound | pKa [1] | time of release/elution from coated stent ([2]; control stents coated with ionic form, aqueous solutions, same conditions, hydrochloride) | state of stent coating after dipping in water ([3]; dipped in water for one minute (FIG. 4)) | state of stent coating after ex vivo exposure to pig ureter ([4]; one-minute ex vivo exposure (FIG. 5)) | solubility in water (words) ([5]; hydrochloride) | solubility in water (words) ([5]; listed as bupivacaine hydrochloride, hydrochloride) | period over which release from ureteral stent occurs ([2]; coated polyurethane ureteral stent, solutions of pH 4.5, 7.0 and 9.5) | dependence of release rate on pH of the eluting solution ([2]; pH 4.5, 7.0, 9.5) | state of stent coating after exposure to aqueous environment ([3]; aqueous environment for several days (FIG. 6)) | state of stent coating after ex vivo test with pig ureter ([4]; 24 hours ex vivo (FIG. 7)) | solubility ([5]; base or non-ionic form) | solubility in water (words) [5] | solubility in water (words) ([5]; listed as Bupivacaine) |
| --- | --- | --- | --- | --- | --- | --- | --- | --- | --- | --- | --- | --- | --- |
| CCCN1CCCC[C@H]1C(=O)Nc1c(C)cccc1C [ropivacaine] | 8.16 | – | – | – | – | – | – | – | – | – | – | – | – |
| CCCCN1CCCCC1C(=O)Nc1c(C)cccc1C (centres unmarked) [Bupivacaine.HCl, 1-butyl-N-(2,6-dimethylphenyl)-2-piperidinecarboxamide hydrochloride] | – | within a matter of minutes; also recorded: eluted fully within minutes | coating is substantially dissolved | Most of the coating 92 has been dissolved | water-soluble | soluble in water | – | – | – | – | – | – | – |
| CCCCN1CCCCC1C(=O)Nc1c(C)cccc1C (centres unmarked) [bupivacaine] | 8.09 | – | – | – | – | – | about 12 days | approximately the same rate | virtually no effect on the coating | most of the non-ionic form of the bupivacaine coating remains on the stent | about 0.2 mg/mL | only very slightly soluble in water | sparingly soluble in water |
